Measurements reported in the NIST ThermoML archive (doi:10.1016/j.fluid.2016.02.013).
± gives the expanded uncertainty stated by the source.

Conditions: 101.33 kPa, Liquid; for viscosity: Concentric cylinders viscometry; for mass density: Vibrating tube method; for electrical conductivity: impedance analyzer

SMILES: CCCC[P+](CCCC)(CCCC)CCCC.O=C([O-])[C@@H]1CCCN1 [tetrabutylphosphonium L-prolinate]
- viscosity (298.15 K): 1025 ± 43 mPa·s
- mass density (298.15 K): 971.1 ± 0.8 kg/m3
- electrical conductivity (298.15 K): 0.00727 S/m
- viscosity (303.15 K): 692.8 ± 26 mPa·s
- mass density (303.15 K): 968.2 ± 0.8 kg/m3
- electrical conductivity (303.15 K): 0.0105 S/m
- viscosity (313.15 K): 343.6 ± 9.6 mPa·s
- mass density (313.15 K): 962.38 ± 0.79 kg/m3
- electrical conductivity (313.15 K): 0.0201 ± 0.04 S/m
- viscosity (323.15 K): 186.1 ± 3.8 mPa·s
- mass density (323.15 K): 956.46 ± 0.79 kg/m3
- electrical conductivity (323.15 K): 0.0354 ± 0.04 S/m
- viscosity (333.15 K): 108.7 ± 1.6 mPa·s
- mass density (333.15 K): 950.54 ± 0.78 kg/m3
- electrical conductivity (333.15 K): 0.0584 ± 0.04 S/m
- viscosity (343.15 K): 67.74 ± 0.74 mPa·s
- mass density (343.15 K): 944.63 ± 0.77 kg/m3
- electrical conductivity (343.15 K): 0.0907 ± 0.04 S/m
- viscosity (353.15 K): 44.5 ± 0.47 mPa·s
- mass density (353.15 K): 938.75 ± 0.77 kg/m3
- electrical conductivity (353.15 K): 0.134 ± 0.04 S/m
- viscosity (363.15 K): 30.61 ± 0.33 mPa·s
- mass density (363.15 K): 932.9 ± 0.76 kg/m3
